Read-outs that look alike come from different tables or passages of the source.
Target: T1, recombinant human cannabinoid CB2 receptor (Homo sapiens, UniProt P34972)
T1 construct: purchased Receptor Biology RB-HCB2
Test: competition with [3H] CP-55,940 for binding to recombinant cannabinoid CB2 receptor membranes
Description: Potential cannabinoid receptor ligands were screened for the ability to compete with [^3H] CP-55,940 for binding to recombinant cannabinoid receptors. Test compounds were serially diluted in Diluent Buffer (50 mM Tris pH 7.1, 1 mM EDTA, 3 mM MgCl2, 0.1% BSA, 10% DMSO, 0.36% methyl cellulose (Sigma M-6385)) from stocks prepared in 100% DMSO. Aliquots (10 μl) were transferred into 96-well microtiter plates. Membrane preparations of recombinant human cannabinoid CB2 receptor (Receptor Biology #RB-HCB2) or recombinant human cannabinoid CB1 receptor (Receptor Biology #RB-HCB1) were diluted to 0.3 mg/ml in Binding Buffer (50 mM Tris pH 7.2, 1 mM EDTA, 3 mM MgCl2, 0.1% BSA). Aliquots (50 μl) were added to each well of the microtiter plate. The binding reactions were initiated by addition of [^3H] CP-55,940 (New England Nuclear # NET 1051; specific activity=180 Ci/mmol available from New England Nuclear) to each well of the microtiter plate. Each 100 μl reaction mixture contained 0.48 nM [^3H] CP-55,940, 15 ug membrane protein in binding buffer containing 1% DMSO and 0.036% methyl cellulose. Following incubation for 2 hours at room temperature, the reaction mixtures were filtered through 0.5% polyethylenimine-coated GF/C filter plates (UniFilter-96, Packard) with a TomTec Mark 3U Harvester (Hamden, Conn.). The filter plate was washed 5 times with binding buffer, rotated 180°, then re-washed 5 times with binding buffer. Bound radioactivity was quantitated following addition of 30 μl of Packard Microscint 20 scintillant in a Packard TopCount NXT microplate scintillation counter. Non-linear regression analysis of the resulting data was performed using Prism 2.0b (from GraphPad, San Diego, Calif.).
The activities (potencies) for the compounds of the invention are determined by measuring their Ki values.

[1] = 0.48 nM [3H] CP-55,940, 15 ug membrane protein, 2 hours at room temperature, read-out: CB2 Ki

T1 sequence (P34972 whole entry): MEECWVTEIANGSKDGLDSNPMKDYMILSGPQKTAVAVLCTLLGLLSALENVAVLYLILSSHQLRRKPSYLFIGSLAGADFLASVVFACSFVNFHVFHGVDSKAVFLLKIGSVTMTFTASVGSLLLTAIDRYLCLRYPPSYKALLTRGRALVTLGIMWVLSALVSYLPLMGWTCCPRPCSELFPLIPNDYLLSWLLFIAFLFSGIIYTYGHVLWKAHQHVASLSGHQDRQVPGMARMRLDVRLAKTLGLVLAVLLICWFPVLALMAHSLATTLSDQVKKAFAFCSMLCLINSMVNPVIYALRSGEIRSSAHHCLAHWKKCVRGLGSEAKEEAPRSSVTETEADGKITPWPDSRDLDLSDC

Compound | Ki [1] | Ki
O=C(NC1CCc2cc(S(=O)(=O)c3ccc(C4CC4)cc3S(=O)(=O)c3ccccn3)ccc21)C(F)(F)F (stereo not drawn) [Compound 19] | < 20 nM | 
O=S(=O)(c1ccc2c(c1)CCC2NS(=O)(=O)C(F)(F)F)c1ccc(C2CC2)cc1S(=O)(=O)c1ccccn1 (stereo not drawn) [Compound 12] | < 20 nM | 
O=S(=O)(c1ccc2c(c1)CCC2NS(=O)(=O)C(F)(F)F)c1ccc(Cl)cc1S(=O)(=O)c1ccccc1F (stereo not drawn) [Compound 6] | < 20 nM | 
CS(=O)(=O)NC1CCc2cc(S(=O)(=O)c3ccc(C4CC4)cc3S(=O)(=O)c3ccccn3)ccc21 (stereo not drawn) [Compound 9] |  | < 20 nM
CS(=O)(=O)NC1CCc2cc(C(=O)c3ccc(OC(F)(F)F)cc3S(=O)(=O)c3ccccc3F)ccc21 (stereo not drawn) [Compound 2] |  | < 20 nM
COc1ccc(S(=O)(=O)c2ccc3c(c2)CCC3NS(=O)(=O)C(F)(F)F)c(S(=O)(=O)c2ccccc2F)c1 (stereo not drawn) [Compound 5] | < 20 nM | 
CS(=O)(=O)NC1CCc2cc(S(=O)(=O)c3ccc(Cl)cc3S(=O)(=O)c3ccccn3)ccc21 (stereo not drawn) [Compound 8] | < 20 nM | 
CS(=O)(=O)NC1CCc2cc(S(=O)(=O)c3cc4ccccc4n3S(=O)(=O)c3ccccn3)ccc21 (stereo not drawn) [Compound 10] | < 20 nM | 
O=C(NC1CCc2cc(Cc3ccc(OC(F)(F)F)cc3S(=O)(=O)c3ccccc3F)ccc21)C(F)(F)F (stereo not drawn) [Compound 23] | < 20 nM | 
